Measurements: PubChem BioAssay AID2060488 (Molecular Pharmacology Branch, DTP, NCI, 2025)
Several values for one entry are separate records, joined by “and”; a condition that tells them apart may be missing. Equal values may be shown once.

Tested on: 966289-007-R4-J1-PDC complex spheroid viability
Test: Anticancer human tumor 966289-007-R4-J1-PDC patient-derived pancreatic adenocarcinoma cell line growth inhibition [GQUAD]
Conditions: for viability, T/C: stronger effect = lower value
Source text: DNA G-quadruplex Stabilizer Agents in Combinations in Complex Spheroids
A high-throughput screen of multi-cell type tumor spheroids was designed to identify active combinations of DNA G-quadruplex stabilizer agents and targeted small molecules. Complex spheroids include a stromal component modeled by human endothelial cells (HUVEC) and fibroblasts modeled by human mesenchymal stem cells (MSCs). The concentration ranges selected for each drug and investigational agent were based upon clinically achievable concentrations if the clinical Cmax of the agent was known.
Compounds. The drugs and investigational agents: pidnarulex (CX-5461; NSC782164), APTO-253 (NSC789042), BRACO-19 (NSC847499), peposertib (NSC802822), ceralasertib (NSC780249), elimusertib (NSC800525), camonsertib (NSC841442), AZD-1390 (NSC803789), olaparib (NSC753686), talazoparib (NSC767125), ART-558 (NSC835418), sotorasib (NSC818433), MRTX-1133 (NSC836407), SN-38 (NSC673596), topotecan (NSC609699), etoposide (NSC141540), doxorubicin (NSC123127), gemcitabine (NSC613327), 5-fluorouracil (NSC19893), paclitaxel (NSC125973), vemurafenib (NSC761431), panobinostat (NSC761190), R-306465 (JNJ-16241199; NSC773264), adavosertib (NSC754352), TP-3654 (NSC805149), carboplatin (NSC241240), KSQ-4279 (NSC840948), and staurosporine (NSC755774) were obtained from the National Cancer Institute (NCI) Developmental Therapeutics Program Chemical Repository (34). The FDA-approved anticancer drug set is available from the NCI Developmental Therapeutics Program. […] The stock solutions were prepared in dimethyl sulfoxide (DMSO, Sigma-Aldrich, St. Louis, MO, cat. D2650) at 800-fold the tested concentration and stored at -70 degrees C prior to their use. All drugs and investigational agents were tested over a range starting from a high concentration at or near the clinical Cmax and decreasing in half-log increments. If the clinical Cmax for an agent had not been determined, the highest concentration tested was 10 microM.
2.3 Cell Culture. All cells were maintained in an incubator at 37 degrees C and 5% CO2 with 95% humidity. The PDC lines were cultured according to standard operating procedures established by the NCI PDMR. All PDCs were thawed and cultured in Matrigel-coated flasks prepared with a working solution of 1X Ham's F-12 nutrient mix, without supplementation (Invitrogen, cat. 11765054), 100 U/mL penicillin-streptomycin (Invitrogen, cat. 15140122), and 2.5% Matrigel (Corning Inc., cat. 354248) for the first three passages. The 857933-349-R-J2-PDC line was cultured in 6C/Colon 1B media, which includes advanced DMEM/F-12 (Thermo Fisher Scientific, cat. 12634028), 10 mM HEPES (Thermo Fisher Scientific, cat. 15630080), 1X GlutaMAX supplement (Thermo Fisher Scientific, cat. 35050061), 0.1 mg/mL primocin (InvivoGen, cat. ant-pm-2), 10% defined fetal bovine serum, heat inactivated (HyClone Laboratories Inc., cat. SH30070.03HI), 50% L-WRN conditioned media (ATCC, cat. CRL-3276), 1.25 mM N-Acetyl-L-cysteine (Sigma-Aldrich, cat. A9165), 10 mM nicotinamide (Sigma-Aldrich, cat. N0636), 1X B-27 supplement (Thermo Fisher Scientific, cat. 17504044), 1X N-2 supplement (Thermo Fisher Scientific, cat. 17502048), 10 microM Y-27632 dihydrochloride (Tocris Bioscience, cat. 1254), and 50 ng/mL human EGF recombinant protein (Thermo Fisher Scientific, cat. PHG0311). The 485176-168-R4-J1-PDC line was cultured in Panc media, which includes all 6C/Colon 1B media components plus 100 ng/mL human FGF-10 (Thermo Fisher Scientific, cat. 100-26), 500 nM SB-431542 (Selleckchem, cat. S1067), and gastrin (Tocris, cat. 3006).
[…]

[1] = curve of first compound, second compound 0.0316 µM
[2] = curve of first compound, second compound 0.1 µM
[3] = curve of first compound, second compound 0.316 µM
[4] = curve of first compound, second compound 1 µM
[5] = curve of first compound, second compound 3.16 µM
[6] = curve of first compound, second compound 10 µM
[7] = second compound 0.0316 µM, first compound 0.0316 µM
[8] = second compound 0.0316 µM, first compound 0.316 µM
[9] = second compound 0.1 µM, first compound 0.0316 µM
[10] = second compound 0.1 µM, first compound 0.316 µM
[11] = second compound 0.316 µM, first compound 0.0316 µM
[12] = second compound 0.316 µM, first compound 0.316 µM
[13] = second compound 1 µM, first compound 0.0316 µM
[14] = second compound 1 µM, first compound 0.316 µM
[15] = second compound 3.16 µM, first compound 0.0316 µM
[16] = second compound 3.16 µM, first compound 0.316 µM
[17] = second compound 10 µM, first compound 0.0316 µM
[18] = second compound 10 µM, first compound 0.316 µM
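Note: spheroids exposed to the agents for seven days before readout.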
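Throughout, for viability, T/C: percent viability relative to DMSO vehicle control wells taken as 100%.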

With `Cc1cccc(N(C)C(=O)C2C(O)CCN2c2nc(C)cc(C(F)(F)F)c2C#N)c1` (stereo unspecified) + Cc1cnc(CNC(=O)c2c(=O)c3ccc(N4CCCN(C)CC4)nc3n3c2sc2ccccc23)cn1 the IC50 [1] was > 10 µM, the IC50 [2] was < 0.0316 µM and the IC50 [3] was < 0.0316 µM. The IC50 [4] was < 0.0316 µM, the IC50 [5] was < 0.0316 µM and the IC50 [6] was < 0.0316 µM. For the same compound, the viability, T/C [7] was 111%, the viability, T/C (second compound 0.0316 µM, first compound 0.1 µM) was 102% and the viability, T/C [8] was 103%. For the same compound, the viability, T/C (second compound 0.0316 µM, first compound 1 µM) was 102%, the viability, T/C (second compound 0.0316 µM, first compound 3.16 µM) was 110% and the viability, T/C (second compound 0.0316 µM, first compound 10 µM) was 106%. It also gave a viability, T/C [9] of 40.1%, a viability, T/C (second compound 0.1 µM, first compound 0.1 µM) of 30.9% and a viability, T/C [10] of 36.3%. The viability, T/C (second compound 0.1 µM, first compound 1 µM) was 34.9%, the viability, T/C (second compound 0.1 µM, first compound 3.16 µM) was 36.2% and the viability, T/C (second compound 0.1 µM, first compound 10 µM) was 40.1%. The viability, T/C [11] was 12.1%, the viability, T/C (second compound 0.316 µM, first compound 0.1 µM) was 11.4% and the viability, T/C [12] was 10.2%. For the same compound, the viability, T/C (second compound 0.316 µM, first compound 1 µM) was 13.8%, the viability, T/C (second compound 0.316 µM, first compound 3.16 µM) was 12.7% and the viability, T/C (second compound 0.316 µM, first compound 10 µM) was 13.3%. It also gave a viability, T/C [13] of 6.47%, a viability, T/C (second compound 1 µM, first compound 0.1 µM) of 6.97% and a viability, T/C [14] of 7.01%. For the same compound, the viability, T/C (second compound 1 µM, first compound 1 µM) was 6.54%, the viability, T/C (second compound 1 µM, first compound 3.16 µM) was 6.3% and the viability, T/C (second compound 1 µM, first compound 10 µM) was 7.05%. The viability, T/C [15] was 5.3%, the viability, T/C (second compound 3.16 µM, first compound 0.1 µM) was 4.93% and the viability, T/C [16] was 4.77%. It also gave a viability, T/C (second compound 3.16 µM, first compound 1 µM) of 5.55%, a viability, T/C (second compound 3.16 µM, first compound 3.16 µM) of 5.79% and a viability, T/C (second compound 3.16 µM, first compound 10 µM) of 5.35%. The viability, T/C [17] was 0.13%, the viability, T/C (second compound 10 µM, first compound 0.1 µM) was 0.18% and the viability, T/C [18] was 0.17%. For the same compound, the viability, T/C (second compound 10 µM, first compound 1 µM) was 0.17%, the viability, T/C (second compound 10 µM, first compound 3.16 µM) was 0.51% and the viability, T/C (second compound 10 µM, first compound 10 µM) was 0.38%.
In the case of `COc1ccc([C@@H](O)c2cc(-c3ncnc4cc(N5CCOCC5)ccc34)c(F)cc2Cl)nn1`, the viability, T/C (compound 0.0316 µM) is reported as 103% and 98.9% and 97.2%, the viability, T/C (compound 0.1 µM) is reported as 92.9% and 100% and 92% and the viability, T/C (compound 0.316 µM) is reported as 110% and 106% and 105%. The viability, T/C (compound 1 µM) was 103% (2×) and 108%, the viability, T/C (compound 3.16 µM) was 113% and 110% and 126% and the viability, T/C (compound 10 µM) was 90.2% and 103% and 108%. The IC50 (curve of compound) was > 10 µM.
In the case of `Cc1[nH]c2ccccc2c1CCNCc1ccc(/C=C/C(=O)NO)cc1` + Cc1cnc(CNC(=O)c2c(=O)c3ccc(N4CCCN(C)CC4)nc3n3c2sc2ccccc23)cn1, the IC50 [1] is reported as 0.0469 µM, the IC50 [2] is reported as < 0.000999 µM and the IC50 [3] is reported as < 0.000999 µM. For the same compound, the IC50 [4] was < 0.000999 µM, the IC50 [5] was < 0.000999 µM and the IC50 [6] was < 0.000999 µM. For the same compound, the viability, T/C (second compound 0.0316 µM, first compound 0.000999 µM) was 120%, the viability, T/C (second compound 0.0316 µM, first compound 0.00316 µM) was 109% and the viability, T/C (second compound 0.0316 µM, first compound 0.00999 µM) was 110%. The viability, T/C [7] was 72%, the viability, T/C (second compound 0.0316 µM, first compound 0.0999 µM) was 7.63% and the viability, T/C [8] was 2.65%. The viability, T/C (second compound 0.1 µM, first compound 0.000999 µM) was 36.1%, the viability, T/C (second compound 0.1 µM, first compound 0.00316 µM) was 41.1% and the viability, T/C (second compound 0.1 µM, first compound 0.00999 µM) was 39.4%. It also gave a viability, T/C [9] of 20.3%, a viability, T/C (second compound 0.1 µM, first compound 0.0999 µM) of 5.43% and a viability, T/C [10] of 2.01%. It also gave a viability, T/C (second compound 0.316 µM, first compound 0.000999 µM) of 10.3%, a viability, T/C (second compound 0.316 µM, first compound 0.00316 µM) of 10.7% and a viability, T/C (second compound 0.316 µM, first compound 0.00999 µM) of 9.3%. It also gave a viability, T/C [11] of 5.04%, a viability, T/C (second compound 0.316 µM, first compound 0.0999 µM) of 2.95% and a viability, T/C [12] of 1.25%. The viability, T/C (second compound 1 µM, first compound 0.000999 µM) was 7.03%, the viability, T/C (second compound 1 µM, first compound 0.00316 µM) was 5.38% and the viability, T/C (second compound 1 µM, first compound 0.00999 µM) was 5.15%. For the same compound, the viability, T/C [13] was 3.16%, the viability, T/C (second compound 1 µM, first compound 0.0999 µM) was 1.45% and the viability, T/C [14] was 0.33%. For the same compound, the viability, T/C (second compound 3.16 µM, first compound 0.000999 µM) was 3.98%, the viability, T/C (second compound 3.16 µM, first compound 0.00316 µM) was 4.39% and the viability, T/C (second compound 3.16 µM, first compound 0.00999 µM) was 3.78%. It also gave a viability, T/C [15] of 0.2%, a viability, T/C (second compound 3.16 µM, first compound 0.0999 µM) of 0.08% and a viability, T/C [16] of 0.8%. For the same compound, the viability, T/C (second compound 10 µM, first compound 0.000999 µM) was 0.11%, the viability, T/C (second compound 10 µM, first compound 0.00316 µM) was 0.57% and the viability, T/C (second compound 10 µM, first compound 0.00999 µM) was 0.17%. For the same compound, the viability, T/C [17] was 0.39%, the viability, T/C (second compound 10 µM, first compound 0.0999 µM) was 0.16% and the viability, T/C [18] was 0.17%.
